Assay results reported in PMC6715681, “A high-throughput screen to identify novel synthetic lethal compounds for the treatment of E-cadherin-deficient cells” (Scientific Reports, 2019).
Marks after values point to notes of the source that are not given here.

Experiments:
[1] = tested on: MCF10A WT and MCF10A CDH1^−/− cells; experiment: Single-point confirmation screen (10 μM, CTB, 384-well), viability differential between isogenic lines; type: cell-based, human; details: averaged between three biological replicates, Supplementary Table 2
Protocol: In the single-point confirmation screen, compounds that preferentially harm MCF10A CDH1^−/− cells compared to the wild-type cells were now identified. Three biological replicates were performed for each of the isogenic cell lines at a single-point (10 μM) in 384-well plates. All assay plates had acceptable Z’ values above 0.4 and 23 out of 48 plates had values above 0.6. The POC R^2 correlation between the three biological replicates for the two isogenic cell lines were all above 0.8 (data not shown). A cell viability differential of ‘MCF10A WT POC – MCF10A CDH1^−/− POC’ was used to select hits. An arbitrary threshold for the mean differential of >8.5% was chosen in order to maximize the number of hits being screened in the subsequent stages and to reduce false negatives.
To incorporate a measure of the variability between replicates of the screen into the hit selection process, a further requirement was included of a minimum of 2/3 biological replicates having viability differentials >8.5%. This removed a further 52 compounds shown in blue with only one out of three biological replicates crossing the Y = X-8.5 line independent of the mean. In total, 256 compounds were above the hit selection threshold, thereby preferentially killing E-cadherin negative cells. The mean POC differential of the 256 hits was 17.6% +/− 7.1 (+/−SD), with the highest being 48% for SLEC-1 (Synthetic Lethal E-Cadherin compound 1). […] The resulting 256 SL compounds were then assayed in an 11-point screen for EC50 determination.
(§1) MCF10A WT and MCF10A CDH1^−/− cells were seeded into Corning black walled, clear bottom 384-well plates (assay plates) using a multidrop 384 reagent dispenser (Thermo Fisher Scientific) and a total volume of 50 μL per well.
As we have shown MCF10A CDH1^−/− cells have a prolonged lag to log phase growth of around 24 hours, in order to achieve a similar confluence at 72 hours post seeding MCF10A WT and MCF10A CDH1^−/− cell lines were seeded at 600 cells/well and 800 cells/well, respectively. […] At 72 hours post seeding, plates were removed from the incubator and left for 30 minutes at RT to equalise the temperature across all wells of the plates and reduce fluorescence-based edge effects before reading on an EnVision (PerkinElmer) at 550 nm excitation and 590 nm emission to quantify cell viability.
The coRFU values were then used to calculate the normalized readouts of percent of controls (Eq. 3) and the robust Z score (Eqs 4,5), where doxorubicin refers to an EC80 dose and DMSO was 0.2% v/v.3 coPOC=100×(SamplecoRFU−x¯doxorubicincoRFU)/(x¯DMSOcoRFU−x¯doxorubicincoRFU) 4 MAD=median([…]) 5 CorrectedrobustZscore=(SamplecoRFU−platemediancoRFU)/MAD

MCF10A CDH1^−/− cells [2] = experiment: 11-point dose-response screen, cell titre blue (CTB) viability; type: cell-based, human; details: for Differential at 20 μM: MCF10A WT – MCF10A CDH1−/− POC at 20 μM; for EC50: Homo sapiens, MCF-10A
Protocol: (§2) The 11-point dose-response screen evaluated a concentration range from 0.02 µM to 20 µM for both isogenic cell lines in duplicate biological replicates (Fig. 4). One limitation to metabolism-based cellular assays is that a change in read out (fluorescence, luminescence or absorbance) may not necessarily be caused by cell death and could instead result from a cessation of proliferation due to senescence or inhibited mitochondrial respiration. For this reason, a direct measurement of cell counts using cellular imaging of nuclei stained with Hoechst 33342 was also included at the 11-point screening stage. For the CTB 11-point screen all plates had acceptable Z’ values above 0.4, with the second biological replicate having 70% above 0.6 (Fig. 4A). The Z’ values for the high-content imaging (HCI) 11-point screen plates were above 0.4 for MCF10A WT, except one plate from biological replicate two with 0.396 (Fig. 4B). However, for MCF10A CDH1^−/− HCI data, only four plates were above a Z’ of 0.4 and the mean Z’ was 0.32 compared to a mean of 0.51 for MCF10A WT. A further quality metric known as the strictly standardized mean difference (SSMD)[40] is a less conservative approach for QC and a cut-off of >3 is generally used. The mean SSMD value was 7.04 for MCF10A WT and 5.27 for MCF10A CDH1^−/− plates and indicates the MCF10A CDH1^−/− HCI data was acceptable[41]. There was a good correlation between the top hits from the HCI and CTB 11-point screening with an overlap of 31 / 40 for the top 40 compounds selected from the eventual hit selection strategies.
as §1
(§3) As we have shown MCF10A CDH1^−/− cells have a prolonged lag to log phase growth of around 24 hours, in order to achieve a similar confluence at 72 hours post seeding MCF10A WT and MCF10A CDH1^−/− cell lines were seeded at 600 cells/well and 800 cells/well, respectively. Following seeding, plates were left for one hour at RT without stacking[46] and then centrifuged at 500 × g (RCF) for one minute. Plates were then transferred to an incubator at 37 °C and 5% CO2. At 24 hours post seeding, the MiniTrak robotic liquid handling system (Perkin Elmer) was used to transfer 352 compounds per 384-well library plate to the first 22 columns of a 384-well assay plate containing cells to achieve a 10 μM final compound concentration for the pilot, primary and single-point confirmation screens. For the 11-point dose-response screen, compounds were added to columns 1–22, but excluding edge rows A and P of the library plate to reduce edge-effects (Supplementary Fig. 2). The controls of DMSO (0.2% v/v), doxorubicin (EC80) and entinostat (EC50) were added into columns 23–24 of each assay plate (Supplementary Table 1). Cell titre blue[47] was made in-house in sterile PBS from 597 μM resazurin, 78 μM methylene blue, 1 mM potassium hexacyanoferrate (III) and 1 mM potassium hexacyanoferrate (II) trihydrate. At 69 hours post seeding, 16.7% v/v CTB was added to plates and they were incubated at 37 °C for 3 hours (Supplementary Fig. 1). At 72 hours post seeding, plates were removed from the incubator and left for 30 minutes at RT to equalise the temperature across all wells of the plates and reduce fluorescence-based edge effects before reading on an EnVision (PerkinElmer) at 550 nm excitation and 590 nm emission to quantify cell viability.
(§4) Supplementary Table 1. Killing control and SL control effective concentrations.
(§5) Doxorubicin EC80 0.3 µM 0.4 µM
(§6) MCF10A WT cells were seeded at 600/well and MCF10A CDH1-/- cells at 800/well in 384-well plates. Drugs
(§7) were added at 24 hours post seeding and CTB was used as an end-point assay. Concentrations were normalized

MCF10A WT cells [3] = experiment: as above; type: cell-based, human; details: for EC50 / activity at 20 µM: Homo sapiens, MCF-10A; for activity at 20 µM: viability of WT cells at highest concentration 20 μM, read-out: MCF10A WT POC at 20 μM
Protocol: as §2, §1, §3, §4, §5, §6, §7

MCF10A WT cells [4] = experiment: 11-point dose-response screen, high-content imaging (HCI) of Hoechst 33342 nuclei; type: cell-based; details: Homo sapiens, MCF-10A, 11-point screen
Protocol: as §2
(§8) A direct measurement of cell counts using cellular imaging of nuclei was also included at the 11-point screening stage. Plates were fixed, washed and stained using an ELx405 Select deep well washer (BioTek). Media was first aspirated leaving 10 μL/well, then 4% w/v PFA was added and plates left for 15 minutes at RT. Plates were then washed twice with PBS-T, before aspirating all permeabilization buffer and adding Hoechst 33342 (1 μg/mL final) in PBS. Plates were then stored in the dark at 4 °C, until being imaged on a BD Pathway 855. Two 10x images per well were taken and cell counts enumerated using CellProfiler[48].

MCF10A CDH1^−/− cells [5] = experiment: as above; type: cell-based, human; details: Homo sapiens, MCF-10A; 11-point screen, HCI
Protocol: as §2, §8

MCF10A WT cells [6] = experiment: Medium-throughput validation in 96-well plates, Hoechst-33342 nuclei counts (CellProfiler); type: cell-based; details: Homo sapiens, MCF-10A, 96-well validation, at least five concentration points
Protocol: (§9) Cells were seeded into each well of Corning’s black walled, clear bottom 96-well plates with a total volume of 100 μL per well. Edge wells were excluded. Both isogenic cell lines were seeded into the same plate to mitigate plate-to-plate variation. Plates for real-time analysis were transferred to the xCELLigence platform (ACEA Biosciences, USA) or the IncuCyte FLR imaging system (Essen BioScience, USA) as previously described.
(§10) Seventy-two hours post seeding (or 48 hours post compound addition), plates were assayed for cell viability using a one-step cocktail of PFA (0.25% v/v), saponin (0.075% w/v) and Hoechst 33342 (1 μg/ml final) as described previously. CellProfiler was used to enumerate cell counts as previously described.

MCF10A CDH1^−/− cells [7] = experiment: as above; type: cell-based, human; details: for EC50 ratio (MCF10A WT/MCF10A CDH1^−/−) / EC50: 96-well validation; for EC50: Homo sapiens, MCF-10A, Hoechst nuclei counts, at least five concentration points; for Differential at 5 µM (%): normalized cell counts MCF10A WT – MCF10A CDH1^−/−, 96-well, 48 h post compound addition
Protocol: as §9, §10

[8] = 11-point screen (0.02–20 µM), CTB values, averaged between two biological replicates, Supplementary Table 2, read-out: MCF10A CDH1 -/- EC50
[9] = 11-point screen (0.02–20 µM), CTB values, two biological replicates, for EC50 values > 20, a value of 20 was used, read-out: MCF10A WT EC50
[10] = 11-point screen, CTB, read-out: MCF10A CDH1^-/- CTB EC50
[11] = killing control, 384-well, CTB, 11-point curve, 72 hrs post seeding

COc1ccc2nccc(Nc3cccc(C(C)=O)c3)c2c1 [SLEC-2]
Differential at 1-pt [1]: 39.99 | Differential at 20 μM (MCF10A CDH1^−/− cells [2]; 11-point screen): 49.66 | EC50 (MCF10A CDH1^−/− cells [2]; [8]): 3.21 µM | EC50 (MCF10A WT cells [3]; [9]): 17.7 µM | activity at 20 µM (MCF10A WT cells [3]; 11-point screen): 42.3%

COc1ccc2nc(C)cc(NCC(=O)Nc3cccc(C)c3C)c2c1 [SLEC-12]
Differential at 1-pt [1]: 13.92 | Differential at 20 μM (MCF10A CDH1^−/− cells [2]; 11-point screen): 65.85 | EC50 ratio between MCF10A WT and MCF10A CDH1^−/− cells (MCF10A CDH1^−/− cells [2]; 11-point screen, value corresponds to the CTB EC50s of Fig. 5): 6.34 fold change | EC50 (MCF10A CDH1^−/− cells [2]; [10]): 3.06 µM | EC50 (MCF10A WT cells [3]; [9]): 19.4 µM | activity at 20 µM (MCF10A WT cells [3]; 11-point screen): 45% | EC50 (MCF10A WT cells [4]): 12.6 µM | EC50 (MCF10A CDH1^−/− cells [5]): 2.45 µM | EC50 (MCF10A WT cells [6]): 13 µM | EC50 ratio (MCF10A WT/MCF10A CDH1^−/−) (MCF10A CDH1^−/− cells [7]): 1.45 | EC50 (MCF10A CDH1^−/− cells [7]): 8.98 µM | Differential at 5 µM (%) (MCF10A CDH1^−/− cells [7]): 11.47%

COc1cc(Cl)c(C)cc1NC(=O)c1ccc(CN2CCCC2)cc1 [SLEC-6]
EC50 (MCF10A CDH1^−/− cells [2]; [10]): 17.3 µM | EC50 (MCF10A WT cells [3]; 11-point screen, CTB, read-out: MCF10A WT CTB EC50): > 20 µM | EC50 (MCF10A WT cells [4]): > 20 µM | EC50 (MCF10A CDH1^−/− cells [5]): 7.79 µM | EC50 (MCF10A WT cells [6]): 22.6 µM | EC50 ratio (MCF10A WT/MCF10A CDH1^−/−) (MCF10A CDH1^−/− cells [7]): 1.56 | EC50 (MCF10A CDH1^−/− cells [7]): 14.5 µM | Differential at 5 µM (%) (MCF10A CDH1^−/− cells [7]): 20.78* %

CCOc1ccc2nc(C)cc(SCC(O)C(=O)O)c2c1 (stereo not shown) [SLEC-20]
Differential at 1-pt [1]: 23.81 | Differential at 20 μM (MCF10A CDH1^−/− cells [2]; 11-point screen): 70.17 | EC50 (MCF10A CDH1^−/− cells [2]; [8]): 9.38 µM | EC50 (MCF10A WT cells [3]; [9]): > 20 µM | activity at 20 µM (MCF10A WT cells [3]; 11-point screen): 92.9%

Nc1ccccc1NC(=O)c1ccc(CNC(=O)OCc2cccnc2)cc1 [Entinostat, entinostat, reference compound]
EC50 (MCF10A CDH1^−/− cells [2]; SL control, 384-well, CTB, 11-point curve, 72 hrs post seeding, read-out: EC50, MCF10A CDH1-/-): 2.4 µM | EC50 (MCF10A WT cells [3]; SL control, 384-well, CTB, 11-point curve, 72 hrs post seeding, read-out: EC50, MCF10A WT): 3.2 µM

COc1cccc2c1C(=O)c1c(O)c3c(c(O)c1C2=O)C[C@@](O)(C(=O)CO)C[C@@H]3O[C@H]1C[C@H](N)[C@H](O)[C@H](C)O1 [Doxorubicin, doxorubicin, reference compound]
EC80, MCF10A CDH1-/- (MCF10A CDH1^−/− cells [2]; [11]): 0.4 µM | EC80, MCF10A WT (MCF10A WT cells [3]; [11]): 0.3 µM
